± gives the expanded uncertainty stated by the source.
Assays:
[1] = 298.15 K, 101.33 kPa, Liquid; for viscosity: Capillary tube (Ostwald / Ubbelohde) method; for speed of sound: Sing-around technique in a fixed-path interferometer; for mass density: Vibrating tube method
[2] = refractive index (Na D-line) (dimensionless); conditions: 298.15 K; 101.33 kPa; Liquid; Standard Abbe refractometry

Row | viscosity [1] | speed of sound [1] | mass density [1] | refractive index [2] | SMILES
1 | 1.681 ± 0.013 mPa·s | 1545.2 ± 1.9 m/s | 1028.3 ± 0.5 kg/m3 | 1.468 ± 0.0004 | CN1CCCC1=O [N-methylpyrrolidone]
2 | 1.091 ± 0.008 mPa·s | 1144.2 ± 1.6 m/s | 785.21 ± 0.42 kg/m3 | 1.3595 ± 0.0004 | CCO [ethanol]

— the NIST ThermoML archive (doi:10.1021/je201152j)
